Measured values taken from US11607418B2, “Methods of treating SARS-CoV-2 infections” (Tyme, Inc., priority 2020, dated 2023).
Converted amounts (≈) assume the structure as drawn.

Columns and labels:
[1] = test system: SARS-CoV-2 (USA-WA1/2020 strain); test: SARS-CoV-2 neutralization assay, cytopathic effects (CPE) in Vero E6 cells; type: cell-based; details: for Day 2 CPE / Day 4 CPE: 1.25 mg/mL, five replicate wells
[2] = test system: SARS-CoV-2 infection / COVID-19; test: TUDCA capsules taken by persons with or exposed to COVID-19; type: in vivo; details: 500 mg capsule twice per day
[3] = pre-incubation with virus 60 minutes
[4] = simultaneous addition of drug and virus, ~100 TCID50/well

## C[C@H](CCC(=O)NCCS(=O)(=O)[O-])[C@H]1CC[C@H]2[C@@H]3[C@@H](O)C[C@@H]4C[C@H](O)CC[C@]4(C)[C@H]3CC[C@]12C.[Na+] [Sodium TUDCA]
[1]; [3]
  Day 2 CPE: no CPE
[1]; [4]
  Day 2 CPE: no CPE
  Day 4 CPE: no CPE

## CC(CCC(=O)NCCS(=O)(=O)O)C1CCC2C3C(O)CC4CC(O)CCC4(C)C3CCC12C (stereo not shown) [TUDCA acid, tauroursodeoxycholic acid]
[1]; Severe acute respiratory syndrome coronavirus 2, Vero C1008, calculated by the Quest Graph EC50 Calculator, inhibition of SARS-CoV-2 CPE in Vero E6 cells
  EC50: 980 µg/mL (≈ 1960 µM)
[1]; [3]
  Day 2 CPE: no CPE
[1]; [4]
  Day 2 CPE: no CPE
  Day 4 CPE: no CPE

## CC(CCC(=O)NCCS(=O)(=O)O)C1CCC2C3C(O)CC4CC(O)CCC4(C)C3CCC12C (stereo not shown) [TUDCA, tauroursodeoxycholic acid]
[2]; Example 2, oral, one rescue squad member
  Health outcome of member who tested positive for SARS-CoV-2 with COVID-19 symptoms: health returned to normal
[2]; Example 2, twelve rescue squad members, at least 3 months
  COVID-19 symptoms despite repeated exposure to COVID-19 patients: None of the other twelve members have presented with COVID-19 symptoms
[2]; Example 3, one subject
  Health outcome of subject presenting with COVID-19 symptoms: health returned to normal
